The source of these data is PubChem BioAssay AID212 (DTP/NCI, 2004).

For this test, the system named is BDF1 mice, colon carcinoma 38 sc, T/C %. Description: NCI In Vivo Anticancer Drug Screen. Data for tumor model Colon Carcinoma 38 (subcutaneous) in B6D2F1 (BDF1) mice. Conditions: endpoint: median tumor weight (est.), higher = larger tumour. The method in brief: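 Ratio of survival or tumor size, compound-treated animals relative to vehicle controls, in tumor-bearing mice.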

Setting [1] is: dose: 12.5 mg/kg/injection, schedule: Q07DX003 (ip), vehicle: saline.
Where [2] appears, read: dose: 25.0 mg/kg/injection, schedule: Q07DX003 (ip), vehicle: saline.
Where [3] appears, read: dose: 50.0 mg/kg/injection, schedule: Q07DX003 (ip), vehicle: saline.
[4] abbreviates: dose: 100.0 mg/kg/injection, schedule: Q07DX003 (ip), vehicle: saline.
[5] abbreviates: dose: 200.0 mg/kg/injection, schedule: Q07DX003 (ip), vehicle: saline.

The structures appear in SMILES notation. Values joined by “and” are separate entries in the source; they are usually repeats but may differ in a detail not shown here. Identical values can stand only once. Results filed as inconclusive are left out.

Turning to `Cc1c2ccncc2c(C)c2c1[nH]c1ccccc12`, the T/C by setting is: (dose: 10.0 mg/kg/injection, schedule: Q07DX002 (ip), vehicle: distilled water + Tween-80) 63 % of control; (dose: 12.5 mg/kg/injection, schedule: Q07DX002 (ip), vehicle: Klucel (hydroxypropylcellulose) (HPC)) 54 % of control and 75 % of control; (dose: 12.5 mg/kg/injection, schedule: Q07DX003 (ip), vehicle: saline with Tween-80) 42 % of control; under setting [1], 78 % of control; (dose: 20.0 mg/kg/injection, schedule: Q07DX002 (ip), vehicle: distilled water + Tween-80) 83 % of control and 103 % of control; (dose: 20.0 mg/kg/injection, schedule: Q07DX002 (ip), vehicle: water) 61 % of control. The T/C is, setting by setting: (dose: 25.0 mg/kg/injection, schedule: Q07DX003 (ip), vehicle: saline with Tween-80) 38 % of control; under setting [2], 69 % of control; (dose: 40.0 mg/kg/injection, schedule: Q07DX002 (ip), vehicle: water) 9 % of control; (dose: 50.0 mg/kg/injection, schedule: Q07DX003 (ip), vehicle: Klucel (hydroxypropylcellulose) (HPC)) 45 % of control and 55 % of control; (dose: 50.0 mg/kg/injection, schedule: Q07DX003 (ip), vehicle: saline with Tween-80) 28 % of control; under setting [3], 67 % of control. The T/C (dose: 80.0 mg/kg/injection, schedule: Q07DX002 (ip), vehicle: distilled water + Tween-80) is 7 % of control; the T/C (dose: 100.0 mg/kg/injection, schedule: Q07DX002 (ip), vehicle: Klucel (hydroxypropylcellulose) (HPC)) was 12 % of control and 25 % of control; the T/C (dose: 100.0 mg/kg/injection, schedule: Q07DX003 (ip), vehicle: Klucel (hydroxypropylcellulose) (HPC)) is 12 % of control and 20 % of control; the T/C (dose: 100.0 mg/kg/injection, schedule: Q07DX003 (ip), vehicle: saline with Tween-80) is 38 % of control; the T/C under setting [4] was 33 % of control; the T/C (dose: 200.0 mg/kg/injection, schedule: Q07DX003 (ip), vehicle: saline with Tween-80) is 1 % of control. Moreover, under setting [5], the T/C is 2 % of control.

As to `COC(=O)C(N)CCCCNc1ccc2c(cc1=O)C(NC(C)=O)CCc1cc(OC)c(OC)c(OC)c1-2` (configuration not stated), where the note is “dose: 287.0 mg/kg/injection, schedule: Q07DX002 (ip), vehicle: saline”, the T/C was 78 % of control.

Take `N/C(=N\O)c1cn(C2OC(CO)C(O)C2O)c2ncnc(N)c12` (configuration not stated): the T/C was 72 % of control (dose: 1.0 mg/kg/injection, schedule: Q07DX002 (ip), vehicle: Klucel (hydroxypropylcellulose) (HPC)); 82 % of control (dose: 2.0 mg/kg/injection, schedule: Q07DX002 (ip), vehicle: Klucel (hydroxypropylcellulose) (HPC)); 79 % of control (dose: 4.0 mg/kg/injection, schedule: Q07DX002 (ip), vehicle: Klucel (hydroxypropylcellulose) (HPC)); 6 % of control (dose: 4.0 mg/kg/injection, schedule: Q07DX003 (ip), vehicle: Klucel (hydroxypropylcellulose) (HPC)); 91 % of control (dose: 8.0 mg/kg/injection, schedule: Q07DX002 (ip), vehicle: Klucel (hydroxypropylcellulose) (HPC)); 17 % of control (dose: 8.0 mg/kg/injection, schedule: Q07DX003 (ip), vehicle: Klucel (hydroxypropylcellulose) (HPC)). In addition, the T/C (dose: 16.0 mg/kg/injection, schedule: Q07DX002 (ip), vehicle: Klucel (hydroxypropylcellulose) (HPC)) is 93 % of control and the T/C (dose: 16.0 mg/kg/injection, schedule: Q07DX003 (ip), vehicle: Klucel (hydroxypropylcellulose) (HPC)) is 7 % of control.

Regarding `NC1(C(=O)O)CCCC1`, the T/C under setting [1] was 72 % of control; the T/C under setting [2] was 78 % of control; the T/C under setting [3] is 92 % of control; the T/C under setting [4] was 66 % of control; the T/C under setting [5] is 16 % of control.

`COc1ccc(-c2cc(=O)c3cccc(CC(=O)O)c3o2)cc1`: the T/C (dose: 100.0 mg/kg/injection, schedule: Q07DX002 (ip), vehicle: saline with Tween-80) was 84 % of control and the T/C (dose: 200.0 mg/kg/injection, schedule: Q07DX002 (ip), vehicle: saline with Tween-80) is 113 % of control.

Take `CC[PH+](CC)CC[S-].CC[PH+](CC)CC[S-].[Au+].[Au+]`: the T/C reads like this: (dose: 5.0 mg/kg/injection, schedule: Q07DX002 (ip), vehicle: Klucel (hydroxypropylcellulose) (HPC)) 67 % of control; (dose: 10.0 mg/kg/injection, schedule: Q07DX002 (ip), vehicle: Klucel (hydroxypropylcellulose) (HPC)) 89 % of control; (dose: 20.0 mg/kg/injection, schedule: Q07DX002 (ip), vehicle: Klucel (hydroxypropylcellulose) (HPC)) 78 % of control; (dose: 40.0 mg/kg/injection, schedule: Q07DX002 (ip), vehicle: Klucel (hydroxypropylcellulose) (HPC)) 57 % of control.

As to `Nc1ccc(S(=O)(=O)c2ccc(N)cc2)cc1`, the T/C was 154 % of control (dose: 6.25 mg/kg/injection, schedule: Q07DX002 (ip), vehicle: saline with Tween-80); 111 % of control (dose: 12.5 mg/kg/injection, schedule: Q07DX002 (ip), vehicle: saline with Tween-80); 85 % of control and 92 % of control (dose: 50.0 mg/kg/injection, schedule: Q07DX002 (ip), vehicle: saline with Tween-80); 109 % of control (dose: 56.0 mg/kg/injection, schedule: Q07DX002 (ip), vehicle: saline with Tween-80); 87 % of control (dose: 450.0 mg/kg/injection, schedule: Q07DX002 (ip), vehicle: saline with Tween-80); 71 % of control (dose: 900.0 mg/kg/injection, schedule: Q07DX002 (ip), vehicle: saline with Tween-80).

For `O=[Te]=O`, the T/C (dose: 25.0 mg/kg/injection, schedule: Q07DX002 (ip), vehicle: saline) is 98 % of control and the T/C (dose: 50.0 mg/kg/injection, schedule: Q07DX002 (ip), vehicle: saline) was 93 % of control.

For the molecule `CC[C@@]1(O)C[C@H](OC2CC(N(C)C)C(OC3CC(O)C(OC4CCC(=O)C(C)O4)C(C)O3)C(C)O2)c2c(cc3c(c2O)C(=O)c2c(O)ccc(O)c2C3=O)[C@H]1C(=O)OC` (some centres not stated), the T/C is 78 % of control (dose: 0.5 mg/kg/injection, schedule: Q07DX002 (ip), vehicle: water); 100 % of control (dose: 0.5 mg/kg/injection, schedule: Q07DX003 (ip), vehicle: water); 47 % of control (dose: 1.0 mg/kg/injection, schedule: Q07DX002 (ip), vehicle: water); 111 % of control (dose: 1.0 mg/kg/injection, schedule: Q07DX003 (ip), vehicle: water); 84 % of control (dose: 2.0 mg/kg/injection, schedule: Q07DX002 (ip), vehicle: water); 79 % of control (dose: 2.0 mg/kg/injection, schedule: Q07DX003 (ip), vehicle: water). Also, the T/C (dose: 4.0 mg/kg/injection, schedule: Q07DX002 (ip), vehicle: water) is 44 % of control; the T/C (dose: 4.0 mg/kg/injection, schedule: Q07DX003 (ip), vehicle: water) was 46 % of control; the T/C (dose: 8.0 mg/kg/injection, schedule: Q07DX002 (ip), vehicle: water) is 47 % of control.

`C=C1C(C)C2C(Cc3ccccc3)NC(=O)C23C(OC(C)=O)C=CC(C)(O)C(=O)C(C)C/C=C/C3C1O` (configuration not stated): the T/C by setting is: (dose: 0.31 mg/kg/injection, schedule: Q07DX003 (ip), vehicle: Klucel (hydroxypropylcellulose) (HPC)) 93 % of control; (dose: 0.62 mg/kg/injection, schedule: Q07DX003 (ip), vehicle: Klucel (hydroxypropylcellulose) (HPC)) 53 % of control; (dose: 1.25 mg/kg/injection, schedule: Q07DX003 (ip), vehicle: Klucel (hydroxypropylcellulose) (HPC)) 72 % of control; (dose: 2.5 mg/kg/injection, schedule: Q07DX003 (ip), vehicle: Klucel (hydroxypropylcellulose) (HPC)) 100 % of control; (dose: 5.0 mg/kg/injection, schedule: Q07DX003 (ip), vehicle: Klucel (hydroxypropylcellulose) (HPC)) 84 % of control; (dose: 10.0 mg/kg/injection, schedule: Q07DX003 (ip), vehicle: Klucel (hydroxypropylcellulose) (HPC)) 105 % of control.

For the molecule `O=NN(CCCl)C(=O)NC1CCC(=O)NC1=O` (configuration not stated), the T/C by setting is: (dose: 2.0 mg/kg/injection, schedule: Q07DX003 (ip), vehicle: saline with Tween-80) 82 % of control; (dose: 4.0 mg/kg/injection, schedule: Q07DX003 (ip), vehicle: saline with Tween-80) 93 % of control; (dose: 8.0 mg/kg/injection, schedule: Q07DX003 (ip), vehicle: saline with Tween-80) 76 % of control; (dose: 13.0 mg/kg/injection, schedule: Q07DX003 (ip), vehicle: saline with Tween-80) 57 % of control; (dose: 20.0 mg/kg/injection, schedule: Q07DX003 (ip), vehicle: saline with Tween-80) 12 % of control.
